Data: US20230390386A1, “REPLICATION-DEFECTIVE VACCINES AND USES THEREOF” (priority 2020, published 2023)

What was measured:
ToledoLuc strain of HCMV = test: ToledoLuc growth curve in MRC-5 cells after CM treatment of virus (bioluminescence); assay type: cell-based, human cytomegalovirus
Description: ToledoLuc treatment with CM: The human cytomegalovirus (HCMV) strain ToledoLuc, which contains a luciferase expression cassette, was used in this study and well-known to those of skill in the art. Cells of the MRC-5 human diploid fibroblast line were seeded into 12-well plates. […] After 2 hours of treatment with CM, ToledoLuc viruses were washed 3 times with cDMEM and added to MRC-5 cells at an MOI of 0.05 in triplicate wells. The control includes the ToledoLuc treated with the PET vehicle in a similar way. The growth kinetics of ToledoLuc was determined by bioluminescence assay. The luciferase activity of ToledoLuc virus was measured every 24 hours using IVIS-50.
In the present example, the effect of CM treatment on the HCMV was first examined using the modified ToledoLuc strain of HCMV. ToledoLuc was treated with different concentrations of CM for two hours at room temperature, washed to remove unbound CM and then allowed to grow in the MRCS cells.

MCMV-Luc = test: In vivo analysis of CM treated MCMV-Luc injected into mice (IVIS); conditions: 1×10^5 pfu intraperitoneally
Description: In vivo experiments: To check the efficacy of CM in the animal model, mouse cytomegalovirus expressing the luciferase gene (MCMVLuc) was used. […] The 25×10^6 PFU/ml of MCMVLuc viruses were treated with 10 μM, 1.0 μM, and 0.1 μM of CM for two hours at room temperature. The MCMVLuc viruses were washed with RPMI to remove CM and suspended in 1 ml of incomplete RPMI. Thereafter, 200 μl of the CM treated MCMVLuc was injected into five mice per group. The luciferase activity was measured every other day using bioluminescence assay by an in vivo imaging system (IVIS). Briefly, the mice were anesthetized using isoflurane and injected with the luciferin substrate. The injected mice were incubated at RT for five minutes and luciferase activity was determined using IVIS. In control experiments, the MCMVLuc viruses were treated with PET only and followed in a similar way as described above.
The MCMV-Luc virus was purified using a sucrose gradient and titrated. Following purification, 5×10^5 pfu of MCMV-Luc was treated with 10 μM, 1 μM and 0.1 μM of CM for 2 hours at RT. Thereafter, treated 1×10^5 pfu were injected intraperitoneally into five mice for each concentration. […] During this attenuated infection, the mouse immune system had sufficient time to recognize the virus as a foreign antigen and generate antibodies specific for the virus. Moreover, since the attenuated MCMV-Luc was whole viral particles, they contained all possible antigens relevant to priming a protective humeral response. As expected, the MCMV-Luc viral particles that were not treated with CM treatment replicated rapidly in the host mice, as observed by IVIS imaging in FIG. 4B.

E. coli = E. coli growth assay (OD) after CM treatment; assay type: cell-based; conditions: two hours at RT
Description: […] Replicate samples were performed in triplicate. The treated bacterial cells were then added to 96 well, round-bottom plates, which were then incubated at 37° C. in a shaking incubator. The bacterial OD was measured in Glomax Explorer (Promega) every hour to determine the bacterial growth.
In order to observe the effect of CM on the rate of bacterial growth, a series of studies were conducting observing cultures of treated E. coli (FIG. 7). […] Each treatment condition was repeated in triplicate. The treated E. coli were then added to 96 well round-bottom plates, and cultured at 37° C. in a shaking incubator. The bacterial OD was measured by a Glomax Explorer (Promega) every hour to determine the rate bacterial growth. […] Each data point on the graph in FIG. 7 represents the average of three separate measurements.

VZV-Luc = test: CM treated VZV-Luc growth in human fetal skin implants of SCID-hu mouse model; assay type: in vivo; conditions: for VZV growth in implanted skin tissues: 10^3 PFU, 12 days
Text: SCID mice of arbitrary sex, 6-8 weeks old were used to produce the SCID-hu mouse model by implanting human fetal skin under the mouse skin as described previously to study the therapeutic efficacy of CM on the VZV replication and attenuation. The human fetal skin tissues were acquired from Advance Biosciences Resources (Alameda, CA) and processed as described previously (Selariu, Anca et al. “ORF7 of varicella-zoster virus is a neurotropic factor.” Journal of virology vol. 86, 16 (2012): 8614-24.). The VZV-Luc was treated with CM of 10.0 μM, and 1.0 μM followed by washing with DMEM media to remove CM. The acyclovir (30 mg/kg) was used as a positive control. VZV-Luc treated with drug vehicle was used as a mock. The viral load was determined every 48 hours as total photon counts in the infected implanted tissues. The total photon counts were determined using IVIS imaging of infected animals as represented in FIGS. 10A and 10B. The image of one mouse from each group is shown in FIG. 10B after 12 days of post-treatment. Four weeks after implantation, the implanted human tissues were surgically exposed and inoculated with 10^3 PFU of VZV-Luc. Luciferase activity within the implants was measured every 48 h for 12 days using the IVIS200 imaging system and Live Image software.

AD169-GFP = AD169-GFP fluorescence microscopy in ARPE-19 cells after CM treatment of virus; assay type: cell-based, human cytomegalovirus
Description: Fluorescence microscopy: The AD169-GFP viruses were incubated with 100 μM, 10 μM, 1.0 μM, and 0.1 μM of centanamycin as described above. After treatment, the AD169-GFP viruses were washed 3 times with the cDMEM and added to the ARPE-19 cells at an MOI of 0.05. The virus growth was analyzed every day by fluorescence microscopy. In a control experiment, the viruses were only treated with the PET vehicle.
To understand the pathology of CM treated virus, a GFP-expressing human cytomegalovirus, AD169-GFP, was used with microscopic imaging to visually assess the ability of treated viruses to infect cell.

[1] = VZV-Luc treated with 10.0 μM CM

SMILES: COc1cc2cc(C(=O)Nc3cc(N)c4ccccc4c3CCCl)[nH]c2c(OC)c1OC [CM, centanamycin]
- ToledoLuc infection and replication (luciferase activity) (ToledoLuc strain of HCMV; virus treated with 0.01 μM-0.001 μM CM): allows the virus to grow and replicate in the infected cells
- ToledoLuc infection and replication (luciferase activity) (ToledoLuc strain of HCMV; virus treated with 0.1 μM CM, 2 hours at RT): allow the virus to infect the cells but did not replicate
- ToledoLuc infection and replication (luciferase activity) (ToledoLuc strain of HCMV; virus treated with 1 μM CM, 2 hours at RT, MRC5 cells, 9 days post-infection): did not grow and was replication-defective
- ToledoLuc infection and replication (luciferase activity) (ToledoLuc strain of HCMV; virus treated with 10 μM CM, 2 hours at RT, MRC5 cells): neither replicate nor infects the cells
- ToledoLuc infection and replication (luciferase activity) (ToledoLuc strain of HCMV; virus treated with 100 μM CM, 2 hours at RT, MRC5 cells): neither replicate nor infects the cells
- MCMV-Luc infection and replication in mice (IVIS) (MCMV-Luc; virus treated with 0.1 μM CM): able to infect the mice but did not replicate further from the site of infection
- MCMV-Luc infection and replication in mice (IVIS) (MCMV-Luc; virus treated with 1 μM CM): able to infect the mice but did not replicate further from the site of infection
- MCMV-Luc infection and replication in mice (IVIS) (MCMV-Luc; virus treated with 10 μM CM): did not infect the mice
- E. coli growth in culture (OD) (E. coli; 0.01 μM CM): able to grow slowly in the culture
- E. coli growth in culture (OD) (E. coli; 0.1 μM CM): able to grow slowly in the culture
- E. coli growth in culture (OD) (E. coli; 10 μM CM): did not grow
- E. coli growth in culture (OD) (E. coli; 100 μM CM): did not grow in the culture
- VZV growth in implanted skin tissues (VZV-Luc; VZV-Luc treated with 1.0 μM CM): growing very slowly and have growth defects
- Luciferase activity (viral load) in implanted tissues (VZV-Luc; [1]): no luciferase activity in implanted tissues
- VZV growth in implanted skin tissues (VZV-Luc; [1]): did not grow in skin implants
- AD169-GFP infection and replication (GFP fluorescence) (AD169-GFP; virus treated with 1 μM CM): detected in the infected cells but did not replicate
- AD169-GFP infection and replication (GFP fluorescence) (AD169-GFP; virus treated with 10 μM CM): not able to infect the cells
- AD169-GFP infection and replication (GFP fluorescence) (AD169-GFP; virus treated with 100 μM CM): not detected in the infected cells
